Reference: patent publication US20040248234A1, “Sensitive and selective in vitro assay for the detection of reactive drug intermediates” (Pfizer Inc, priority 2003, published 2004)
Where two headings read alike, the source gives them in different places.

Legend:
[1] = test system: human liver microsomal (HL-mix-13)
[2] = test system: human liver microsomal (HL-mix-13); details: 10 μM substrate, 1 mM GSH, 0.5 μM P450, NADPH generating system, HPLC/SRM
[3] = literature reports; cited from earlier work

Molecule	Response observed using GSH-EE as trapping agent [1]	further results
Felbamate	–	Response observed using GSH-EE as trapping agent ([1]; 10 μM substrate, 1 mM GSH-EE, 0.5 μM P450, NADPH generating system, HPLC/SRM): Yes (A response in the assay was deemed “yes” if there were no co-eluting species contained in control (blank) samples and analyte peak to signal ratio was >10); Response observed using GSH as trapping agent [2]: No (A response in the assay was deemed “no” if the signal to noise ratio was <10)
NC(=O)N1c2ccccc2C=Cc2ccccc21 [Carbamazepine]	Yes	–
CC(=O)Oc1ccccc1C(=O)O [aspirin]	–	formation of reactive species / reactive intermediates as reported [3]: have not been reported to produce such reactive species
CCN(CC)Cc1cc(Nc2ccnc3cc(Cl)ccc23)ccc1O [Amodiaquine]	Yes	–
O=C(O)Cc1ccccc1Nc1c(Cl)cccc1Cl [Diclofenac]	Yes	–
COc1ccc2c(c1)c(CC(=O)O)c(C)n2C(=O)c1ccc(Cl)cc1 [Indomethacin]	No	–
CC(=O)Nc1ccc(O)cc1 [Acetaminophen]	–	formation of reactive species / reactive intermediates as reported [3]: have been reported to produce such species
CN(CCOc1ccc(CC2SC(=O)NC2=O)cc1)c1ccccn1 (stereo not drawn) [Rosiglitazone]	Yes	–
